The results in this text go back to patent publication US20220106296A1, “CYANOTRIAZOLE COMPOUNDS AND USES THEREOF” (Novartis AG, priority 2018, published 2022).

pIC50: −log10 of the molar value.

The test system of the assay is T. b. brucei Lister427 bloodstream form parasites. Briefly: T. b. brucei growth inhibition assay (CellTiter-Glo, 48 hours). The settings on record: Trypanosoma brucei. It is filed as cell-based. An excerpt: Bloodstream form of T. b. brucei Lister427 strain was obtained from the Genomics Institute of the Novartis Research Foundation. This strain was used for carrying out growth inhibition and kill kinetics assays. T. b. gambiense STIB930 and T. b. rhodesiense STIB900 were obtained from Swiss TPH, were used for carrying out the growth inhibition assays.
Bloodstream form T. b. brucei Lister 427 parasites were continuously passaged in HMI-9 medium formulated from IMDM medium (Invitrogen), 10% heat-inactivated fetal bovine serum (FBS), 10% Serum Plus medium supplement (SAFC Biosciences), 1 mM hypoxanthine (Sigma-Aldrich), 50 μM bathocuproine disulfonic acid (Sigma-Aldrich), 1.5 mM cysteine (Sigma-Aldrich), 1 mM pyruvic acid (Sigma-Aldrich), 39 μg/mL thymidine (Sigma-Aldrich), and 14 μL/L beta-mercapthoethanol (Sigma-Aldrich); all concentrations of added components refer to that in complete HMI-9 medium. The parasites were cultured in 10 mL of HMI-9 medium in T75 CELL-STAR tissue culture flasks at 37° C./5% CO2.
To determine compound growth inhibitory potency on T. b. brucei Lister427 bloodstream form parasites, 200 nL of 10-point, 3 fold serially diluted compounds in DMSO were transferred to the wells of white, solid bottom 384-well plates (Greiner Bio-One) by either Echo 555 acoustic liquid handling system or Mosquito. Then, 1×10^4 of T. b. brucei parasites in 40 μL of HMI-9 medium were added to each well, and the plates were incubated for 48 hours at 37° C. in 5% CO2 incubators. Parasite numbers in individual plate wells were determined through quantification of intracellular ATP amount. The CellTiter-Glo luminescent cell viability reagent (Promega) was added to plate wells, and ATP-dependent luminescence signal was measured on Tecan M1000 plate Reader after 30 min incubation. Luminescence values in wells with compounds were divided by the average luminescence value of the plate DMSO controls, and used for calculation of compound IC50 values.
In general terms: In ATP-based viability assays light output follows the ATP content of the culture.

Consider `N#Cc1ncn(CC(=O)N2Cc3ccc(-c4cc(F)ccc4C(F)(F)F)cc3C2)n1` [Example 28, 1-(2-(5-(5-fluoro-2-(trifluoromethyl)phenyl)isoindolin-2-yl)-2-oxoethyl)-1H-1,2,4-triazole-3-carbonitrile], for which the pIC50 was above 7.00.

For `N#Cc1ncn(CC(=O)N2Cc3ccc(-c4cccnc4Cl)cc3C2)n1` [Example 47, 1-(2-(5-(2-chloropyridin-3-yl)isoindolin-2-yl)-2-oxoethyl)-1H-1,2,4-triazole-3-carbonitrile], the pIC50 is 6.00 to 7.00.

`N#Cc1ncn(CC(=O)N2Cc3ccc(-c4ccncc4Cl)cc3C2)n1` [Example 49, 1-(2-(5-(3-chloropyridin-4-yl)isoindolin-2-yl)-2-oxoethyl)-1H-1,2,4-triazole-3-carbonitrile] gave a pIC50 of 6.00 to 7.00.

Consider `COc1ccc(-c2ccc3c(c2)CN(C(=O)Cn2cnc(C#N)n2)C3)c(OC)c1` [Example 53, 1-(2-(5-(2,4-dimethoxyphenyl)isoindolin-2-yl)-2-oxoethyl)-1H-1,2,4-triazole-3-carbonitrile], for which the pIC50 is at most 6.00.

`N#Cc1cccc(-c2ccc3c(c2)CN(C(=O)Cn2cnc(C#N)n2)C3)c1` [Example 54, 1-(2-(5-(3-cyanophenyl)isoindolin-2-yl)-2-oxoethyl)-1H-1,2,4-triazole-3-carbonitrile] gave a pIC50 of at most 6.00.

For `N#Cc1ncn(CC(=O)N2Cc3ccc(-c4ccc(F)cc4F)cc3C2)n1` [Example 55, 1-(2-(5-(2,4-difluorophenyl)isoindolin-2-yl)-2-oxoethyl)-1H-1,2,4-triazole-3-carbonitrile], the pIC50 was at most 6.00.

On to `N#Cc1ncn(CC(=O)N2Cc3ccc(-c4ccc(F)nc4)cc3C2)n1` [Example 56, 1-(2-(5-(6-fluoropyridin-3-yl)isoindolin-2-yl)-2-oxoethyl)-1H-1,2,4-triazole-3-carbonitrile], for which the pIC50 is at most 6.00.

Consider `COc1ccc(F)cc1-c1ccc2c(c1)CN(C(=O)Cn1cnc(C#N)n1)C2` [Example 57, 1-(2-(5-(5-fluoro-2-methoxyphenyl)isoindolin-2-yl)-2-oxoethyl)-1H-1,2,4-triazole-3-carbonitrile], for which the pIC50 is at most 6.00.

With `N#Cc1ncn(CC(=O)N2Cc3ccc(-c4ccc(Cl)cc4F)cc3C2)n1` [Example 58, 1-(2-(5-(4-chloro-2-fluorophenyl)isoindolin-2-yl)-2-oxoethyl)-1H-1,2,4-triazole-3-carbonitrile], the pIC50 is at most 6.00.

For the compound `COc1ccc(OC)c(-c2ccc3c(c2)CN(C(=O)Cn2cnc(C#N)n2)C3)c1` [Example 59, 1-(2-(5-(2,5-dimethoxyphenyl)isoindolin-2-yl)-2-oxoethyl)-1H-1,2,4-triazole-3-carbonitrile], the pIC50 was at most 6.00.

Turning to `N#Cc1ncn(CC(=O)N2Cc3ccc(-c4ccncc4F)cc3C2)n1` [Example 60, 1-(2-(5-(3-fluoropyridin-4-yl)isoindolin-2-yl)-2-oxoethyl)-1H-1,2,4-triazole-3-carbonitrile], the pIC50 was at most 6.00.

On to `COc1ccc(-c2ccc3c(c2)CN(C(=O)Cn2cnc(C#N)n2)C3)cc1` [Example 61, 1-(2-(5-(4-methoxyphenyl)isoindolin-2-yl)-2-oxoethyl)-1H-1,2,4-triazole-3-carbonitrile], for which the pIC50 was at most 6.00.

The compound `COc1ccc(OC(F)(F)F)cc1-c1ccc2c(c1)CN(C(=O)Cn1cnc(C#N)n1)C2` [Example 62, 1-(2-(5-(2-methoxy-5-(trifluoromethoxy)phenyl)isoindolin-2-yl)-2-oxoethyl)-1H-1,2,4-triazole-3-carbonitrile] gave a pIC50 of at most 6.00.

Compound `N#Cc1ncn(CC(=O)N2Cc3ccc(-c4ccnc(F)c4)cc3C2)n1` [Example 63, 1-(2-(5-(2-fluoropyridin-4-yl)isoindolin-2-yl)-2-oxoethyl)-1H-1,2,4-triazole-3-carbonitrile] had a pIC50 of at most 6.00.

`C#Cc1ccc(-c2ccc3c(c2)CN(C(=O)Cn2cnc(C#N)n2)C3)cc1` [Example 64, 1-(2-(5-(4-ethynylphenyl)isoindolin-2-yl)-2-oxoethyl)-1H-1,2,4-triazole-3-carbonitrile] showed a negative-log IC50 (pIC50) of at most 6.00.

For `N#Cc1ncn(CC(=O)N2Cc3ccc(-c4ccccc4F)cc3C2)n1` [Example 65, 1-(2-(5-(2-fluorophenyl)isoindolin-2-yl)-2-oxoethyl)-1H-1,2,4-triazole-3-carbonitrile], the pIC50 is at most 6.00.

`N#Cc1ncn(CC(=O)N2Cc3ccc(-c4ccncc4)cc3C2)n1` [Example 66, 1-(2-oxo-2-(5-(pyridin-4-yl)isoindolin-2-yl)ethyl)-1H-1,2,4-triazole-3-carbonitrile] gave a negative-log IC50 (pIC50) of at most 6.00.

`N#Cc1ncn(CC(=O)N2Cc3ccc(-c4ccc(Br)cc4)cc3C2)n1` [Example 67, 1-(2-(5-(4-bromophenyl)isoindolin-2-yl)-2-oxoethyl)-1H-1,2,4-triazole-3-carbonitrile] gave a pIC50 of at most 6.00.

For the compound `N#Cc1ncn(CC(=O)N2Cc3ccc(-c4ccc(F)c(Cl)c4)cc3C2)n1` [Example 68, 1-(2-(5-(3-chloro-4-fluorophenyl)isoindolin-2-yl)-2-oxoethyl)-1H-1,2,4-triazole-3-carbonitrile], the pIC50 was at most 6.00.

`N#Cc1ncn(CC(=O)N2Cc3ccc(-c4ccccc4-c4ccccc4)cc3C2)n1` [Example 69, 1-(2-(5-([1,1′-biphenyl]-2-yl)isoindolin-2-yl)-2-oxoethyl)-1H-1,2,4-triazole-3-carbonitrile]: the negative logarithm of the IC50 (pIC50) is at most 6.00.

In turn, `N#Cc1ncn(CC(=O)N2Cc3ccc(-c4ccc(Cl)c(F)c4)cc3C2)n1` [Example 70, 1-(2-(5-(4-chloro-3-fluorophenyl)isoindolin-2-yl)-2-oxoethyl)-1H-1,2,4-triazole-3-carbonitrile] gave a negative logarithm of the IC50 (pIC50) of at most 6.00.

In turn, `N#Cc1ncn(CC(=O)N2Cc3ccc(-c4ccc(Cl)cc4)cc3C2)n1` [Example 71, 1-(2-(5-(4-chlorophenyl)isoindolin-2-yl)-2-oxoethyl)-1H-1,2,4-triazole-3-carbonitrile] had a pIC50 of at most 6.00.

Compound `N#Cc1ncn(CC(=O)N2Cc3ccc(-c4ccc(F)c(F)c4)cc3C2)n1` [Example 72, 1-(2-(5-(3,4-difluorophenyl)isoindolin-2-yl)-2-oxoethyl)-1H-1,2,4-triazole-3-carbonitrile] gave a negative-log IC50 (pIC50) of at most 6.00.

Consider `N#Cc1ncn(CC(=O)N2Cc3ccc(-c4cccnc4F)cc3C2)n1` [Example 73, 1-(2-(5-(2-fluoropyridin-3-yl)isoindolin-2-yl)-2-oxoethyl)-1H-1,2,4-triazole-3-carbonitrile], for which the pIC50 was at most 6.00.

With `N#Cc1ncn(CC(=O)N2Cc3ccc(-c4cc(F)cc(F)c4)cc3C2)n1` [Example 74, 1-(2-(5-(3,5-difluorophenyl)isoindolin-2-yl)-2-oxoethyl)-1H-1,2,4-triazole-3-carbonitrile], the pIC50 was at most 6.00.

`COc1ccccc1-c1ccc2c(c1)CN(C(=O)Cn1cnc(C#N)n1)C2` [Example 75, 1-(2-(5-(2-methoxyphenyl)isoindolin-2-yl)-2-oxoethyl)-1H-1,2,4-triazole-3-carbonitrile] gave a pIC50 of at most 6.00.

Take `N#Cc1ncn(CC(=O)N2Cc3ccc(-c4ccc(C(F)(F)F)cc4)cc3C2)n1` [Example 76, 1-(2-oxo-2-(5-(4-(trifluoromethyl)phenyl)isoindolin-2-yl)ethyl)-1H-1,2,4-triazole-3-carbonitrile]: the pIC50 is at most 6.00.

Regarding `COc1cccc(-c2ccc3c(c2)CN(C(=O)Cn2cnc(C#N)n2)C3)c1` [Example 77, 1-(2-(5-(3-methoxyphenyl)isoindolin-2-yl)-2-oxoethyl)-1H-1,2,4-triazole-3-carbonitrile], the negative-log IC50 (pIC50) was at most 6.00.

On to `Cc1cc(-c2ccc3c(c2)CN(C(=O)Cn2cnc(C#N)n2)C3)ccc1C(F)(F)F` [Example 78, 1-(2-(5-(3-methyl-4-(trifluoromethyl)phenyl)isoindolin-2-yl)-2-oxoethyl)-1H-1,2,4-triazole-3-carbonitrile], for which the pIC50 is at most 6.00.

As for `N#Cc1ncn(CC(=O)N2Cc3ccc(-c4ccccc4)cc3C2)n1` [Example 79, 1-(2-oxo-2-(5-phenylisoindolin-2-yl)ethyl)-1H-1,2,4-triazole-3-carbonitrile], the pIC50 was at most 6.00.

For `N#Cc1ncn(CC(=O)N2Cc3ccc(-c4cccc(Cl)c4)cc3C2)n1` [Example 80, 1-(2-(5-(3-chlorophenyl)isoindolin-2-yl)-2-oxoethyl)-1H-1,2,4-triazole-3-carbonitrile], the pIC50 was at most 6.00.

In turn, `N#Cc1ncn(CC(=O)N2Cc3ccc(-c4cccc(F)c4)cc3C2)n1` [Example 81, 1-(2-(5-(3-fluorophenyl)isoindolin-2-yl)-2-oxoethyl)-1H-1,2,4-triazole-3-carbonitrile] showed a pIC50 of at most 6.00.

With `N#Cc1ncn(CC(=O)N2Cc3ccc(-c4ccc(F)cc4)cc3C2)n1` [Example 82, 1-(2-(5-(4-fluorophenyl)isoindolin-2-yl)-2-oxoethyl)-1H-1,2,4-triazole-3-carbonitrile], the pIC50 was at most 6.00.

As usually defined, the pIC50 is −log10 of the IC50, conventionally taken in molar units. A low value points to a large IC50.
